Tests used:
Gadd45b expression = Gadd45b expression in cultured primary hippocampal neurons by Q-PCR; assay type: cell-based, mice; settings: for K^+-induced Gadd45b expression: pretreated 0.5 hr, then K^+ (50 mM) for 1 hr, BAPTA 50 μM, Nimodipin 10 μM, KN93 or KN92 10 μM, FIG. 5B; for Gadd45b expression: agent alone, K^+ 50 mM, APV 200 μM, bicuculline 50 μM, FIG. 5A, 5C
Source text: (§1) Dentate gyrus tissue was rapidly micro-dissected from adult WT mice, or with ECT, spatial exploration or running. […] For gene expression analysis, total RNA fraction was immediately isolated after dissection (Qiagen), treated with DNAase and reverse-transcribed into the first-strand cDNA (Invitrogen). Specific primers (listed in Table 1) were used in SYBR-green based quantitative real-time PCR to measure the expression level of target genes with the ΔΔT method (ABI). Most primers were designed to span introns to further prevent genomic DNA amplification during the PCR reaction.
Primary hippocampal neurons were prepared from hippocampi of P0 mice and plated on poly-lysine coated coverslips in Neurobasal-A medium supplemented with B27 (Invitrogen) as previously described (H. Song, C. F. Stevens, F. H. Gage, Nature 417, 39 (2002)). AraC (5 μM) was added to eliminate proliferating cells. One-week old culture was used for all experiments. For pharmacological experiments, cultures were pretreated with the following inhibitors 30 minutes before stimulation with K^+ (50 mM) or glutamate (20 μM) for 1 hr: BAPTA (50 μM), Nimodipin (10 μM), APV (200 μM), bicuculline (50 μM), KN92 or KN93 (10

adult neural progenitors = test: Proliferation of adult hippocampal neural progenitors in culture; assay type: cell-based, rat; settings: FGF-1 0, 2, 5, 10 and 20 ng/ml versus FGF-2 20 ng/ml; cell number at 4 days in vitro; FIG. 23
Procedure: Established neural progenitors from adult rat hippocampus were cultured as monolayer as previously described (H. Song, C. F. Stevens, F. H. Gage, Nature 417, 39 (2002).). They were maintained on laminin and polyornithine-coated dishes in DMEM/F12 medium containing N2 supplement, L-glutamine (2 mM) and FGF-2 (20 ng/ml). Cultures were passaged for expansion when reaching 70% confluence. For FGF-1 experiments, early-passage, monolayer adherent cultures were plated at the clonal density in the presence of various concentration of FGF-1 or FGF-2 (PeproTech). At 4 days in vitro, cultures were fixed and cell numbers from each condition were determined by counting from randomly selected fields of 4 different biological replicates.

Arc = settings: CPP 10 mg/kg i.p. at 1 hr before ECT; 1 hr after ECT; FIG. 2E
Procedure: (§2) Electroconvulsive treatment (ECT) was administered with pulses consisted of 1.0 s, 100 Hz, 18 mA stimulus of 0.3 ms delivered using the Ugo Basile ECT unit (Model 57800) as previously described (A. J. Cole, Neurochem 55, 1920 (1990)). […] S ham animals were similarly handled in parallel without the current delivery. In some experiments, ±3-(2-carboxypiperazin-4-yl)-propyl-1-phosphonic acid (CPP, 10 mg/kg body weight, i.p.), was injected at 1 hr before ECT. Potential damaging responses after ECT was examined by Western blot and immunostaining of the activated form of caspase (Caspase 3-a; Rabbit; 1:500; Cell Signaling) and phospho-ATM (Ataxia telangiectasia mutated kinase; mouse; Millipore) (3).
as §1

Gadd45b = settings: CPP 10 mg/kg i.p. at 1 hr before ECT; 1 hr after ECT; FIG. 2E
Procedure: as §2, §1

Compound: COc1ccc(S(=O)(=O)N(CCO)c2ccccc2CN(C)C/C=C/c2ccc(Cl)cc2)cc1 [KN93]
- K^+-induced Gadd45b expression (Gadd45b expression): abolished

Compound: COCCOC(=O)C1=C(C)NC(C)=C(C(=O)OC(C)C)C1c1cccc([N+](=O)[O-])c1 (centres unmarked) [Nimodipin]
- K^+-induced Gadd45b expression (Gadd45b expression): abolished

Compound: FGF-1: fibroblast growth factor-1 (PeproTech)
- mitogenic activity on neural progenitor proliferation in vitro (adult neural progenitors): robust mitogenic activity

Compound: COc1ccc(S(=O)(=O)Nc2ccccc2CN(C)C/C=C/c2ccc(Cl)cc2)cc1 [KN92]
- K^+-induced Gadd45b expression (Gadd45b expression): not

Compound: N[C@@H](CCC(=O)O)C(=O)O [glutamate]
- Gadd45b expression (Gadd45b expression; glutamate 20 μM): induced

Compound: [Cl-].[K+] [K^+]
- Gadd45b expression (Gadd45b expression; glutamate 20 μM): significant increase

Compound: N[C@@H](CCCP(=O)(O)O)C(=O)O [APV]
- glutamate-induced Gadd45b expression (Gadd45b expression; APV 200 μM pre-treatment, glutamate 20 μM, FIG. 5C): blocked
- Gadd45b expression (Gadd45b expression; glutamate 20 μM): significantly decreased

Compound: O=C(O)CN(CC(=O)O)c1ccccc1OCCOc1ccccc1N(CC(=O)O)CC(=O)O [BAPTA]
- K^+-induced Gadd45b expression (Gadd45b expression): abolished

Compound: O=C(O)C1CN(CCCP(=O)(O)O)CCN1 (racemic) [CPP, ±3-(2-carboxypiperazin-4-yl)-propyl-1-phosphonic acid]
- ECT-induced Arc expression (Arc): abolished
- ECT-induced Gadd45b expression (Gadd45b): abolished

Reference: patent US8735071B2, “Compositions for promoting epigenetic DNA demethylation and methods of use therefore” (The Johns Hopkins University, priority 2008, dated 2014)
